The target in this experiment is human hisTRIM7-PRYSPRY (Homo sapiens, UniProt Q9C029). In words: ITC binding to human TRIM7 PRYSPRY (wild type).

In general, Kd refers to a measure of binding affinity in units of concentration. A lower Kd goes with tighter binding.

Where “and” joins values, the source holds several entries; their conditions need not be identical. Equal entries are not always repeated. Where two headings read alike, the source gives them in different places. Ends that are not written are not given here. Peptide text beside a SMILES is read from it.

`CC(=O)N[C@@H](CC(C)C)C(=O)N[C@@H](CC(C)C)C(=O)N[C@@H](CCC(N)=O)C(=O)O` [Ac-LLQ] (Ac-Leu-Leu-Gln-OH) registered a Kd of 38.7 ± 5.16 µM.

`CC(C)C[C@H](N)C(=O)N[C@@H](CCC(N)=O)C(=O)O` [LQ] (H-Leu-Gln-OH): the Kd worked out at 201 ± 30 µM.

Turning to AAAAALQ [polyA-LQ], the Kd is 8.92 µM and 8 µM.

In turn, AIEALFQ [AIEALFQ] had a Kd of 17 ± 4.3 µM.

The compound DNIKKKLDTYLQ [rbGYG322-333] registered a Kd (KD, ITC, one-site model, 15 °C, 50 mM phosphate pH 6.5, 1 mM DTT, TRIM7 500 µM, ligand 100 µM (peptide 50 µM), representative trace and fit) of 21 ± 1.8 µM.

Values taken from PMC9394474 (Viruses, 2022).
